According to US9468661B2, “Pyrrolidine derivatives and their use as complement pathway modulators” (priority 2012, dated 2016):

Target: human factor D (Homo sapiens (Human), UniProt P00746)
Assay: biochemical
Assay type: biochemical
Details: Factor D inhibition data using Method 1; recombinant human factor D 10 nM, substrate Z-Lys-thiobenzyl, fluorescence; read-out: IC50
Procedure: Human Complement Factor D Assay: Method 1
Recombinant human factor D (expressed in E. coli and purified using standard methods) at 10 nM concentration is incubated with test compound at various concentrations for 1 hour at room temperature in 0.1 M Hepes buffer, pH 7.5, containing 1 mM MgCl2, 1 M NaCl and 0.05% CHAPS. A synthetic substrate Z-Lys-thiobenzyl and 2,4-dinitrobenzenesulfonyl-fluoresceine are added to final concentrations of 200 μM and 25 μM, respectively. The increase in fluorescence is recorded at excitation of 485 nm and emission at 535 nm in a microplate spectrofluorimeter. IC50 values are calculated from percentage of inhibition of complement factor D-activity as a function of test compound concentration.

Sequence of human factor D (P00746 26-253): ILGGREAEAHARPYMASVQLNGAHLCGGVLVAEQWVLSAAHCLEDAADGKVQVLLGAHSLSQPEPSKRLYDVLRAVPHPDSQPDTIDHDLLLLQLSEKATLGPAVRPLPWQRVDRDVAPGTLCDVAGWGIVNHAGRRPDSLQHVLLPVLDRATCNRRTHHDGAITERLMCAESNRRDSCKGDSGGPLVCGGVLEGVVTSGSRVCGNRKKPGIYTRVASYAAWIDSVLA

| Structure (SMILES) | IC50 |
| --- | --- |
| CC(=O)c1nn(CC(=O)N2[C@@H]3C[C@@H]3C[C@H]2C(=O)NCC2CC2(Cl)Cl)c2ncccc12 (stereo partly drawn) [Example 11, (1R,3S,5R)-2-[2-(3-Acetyl-pyrazolo[3,4-b]pyridin-1-yl)-acetyl]-2-aza-bicyclo[3.1.0] hexane-3-carboxylic acid (2,2-dichloro-cyclopropylmethyl)-amide] | 163 nM |
| C[C@@H](NC(=O)[C@@H]1C[C@H]2C[C@H]2N1C(=O)Nc1cn(C(N)=O)c2ccccc12)C1CCCCC1 [Example 28, (1R,3S,5R)-2-Aza-bicyclo[3.1.0]hexane-2,3-dicarboxylic acid 2-[(1-carbamoyl-1H-indol-3-yl)-amide] 3-[((R)-1-cyclohexyl-ethyl)-amide]] | 78 nM |
| NC(=O)n1cc(NC(=O)N2[C@@H]3C[C@@H]3C[C@H]2C(=O)NCC2CCCCC2)c2ccccc21 [Example 25, (1R,3S,5R)-2-Aza-bicyclo[3.1.0]hexane-2,3-dicarboxylic acid 2-[(1-carbamoyl-1H-indol-3-yl)-amide]3-cyclohexylmethyl-amide] | 257 nM |
| CC(=O)c1nn(CC(=O)N2[C@@H]3C[C@@H]3C[C@H]2C(=O)NCC2CCCCC2(C)C)c2cnccc12 (single isomer, unassigned; dia 1) [Example 21] | 118 nM |
| NC(=O)c1nn(CC(=O)N2[C@@H]3C[C@@H]3C[C@H]2C(=O)N[C@H](CO)C23CC(C(F)(F)F)(C2)C3)c2ccccc12 [Example 123, 1-(2-{(1R,3S,5R)-3-[(S)-2-Hydroxy-1-(3-trifluoromethyl-bicyclo[1.1.1]pent-1-yl)-ethylcarbamoyl]-2-aza-bicyclo[3.1.0]hex-2-yl}-2-oxo-ethyl)-1H-indazole-3-carboxylic acid amide] | 1240 nM |
| CC(=O)c1nn(CC(=O)N2[C@@H]3C[C@@H]3C[C@H]2C(=O)NCC2CC3(CC3)C2)c2cnccc12 [Example 8, (1R,3S,5R)-2-[2-(3-Acetyl-pyrazolo[3,4-c]pyridin-1-yl)-acetyl]-2-aza-bicyclo[3.1.0] hexane-3-carboxylic acid (spiro[2.3]hex-5-ylmethyl)-amide] | 498 nM |
| C[C@@H](NC(=O)[C@@H]1C[C@@]2(CO)C[C@H]2N1C(=O)Cn1nc(C(N)=O)c2ccccc21)[C@H]1CC1(Cl)Cl [Example 57, 1-(2-{(1R,3S,5S)-3-[(R)-1-((R)-2,2-Dichloro-cyclopropyl)-ethylcarbamoyl]-5-hydroxymethyl-2-aza-bicyclo[3.1.0]hex-2-yl}-2-oxo-ethyl)-1H-indazole-3-carboxylic acid amide] | 17 nM |
| CC1(C)[C@H](CNC(=O)[C@@H]2C[C@H]3C[C@H]3N2C(=O)Cn2nc(C(N)=O)c3ccncc32)C1(Cl)Cl [Example 102, 1-(2-{(1R,3S,5R)-3-[((R)-2,2-Dichloro-3,3-dimethyl-cyclopropylmethyl)-carbamoyl]-2-aza-bicyclo[3.1.0]hex-2-yl}-2-oxo-ethyl)-1H-pyrazolo[3,4-c]pyridine-3-carboxylic acid amide] | 118 nM |
| C[C@@]1(F)C[C@@H](C(=O)NC[C@H]2CC2(Cl)Cl)N(C(=O)Cn2nc(C(N)=O)c3ccccc32)C1 [Example 60, 1-(2-{(2S,4R)-2-[((R)-2,2-Dichloro-cyclopropylmethyl)-carbamoyl]-4-fluoro-4-methyl-pyrrolidin-1-yl}-2-oxo-ethyl)-1H-indazole-3-carboxylic acid amide] | 124 nM |
| CC(=O)c1nn(CC(=O)N2[C@@H]3C[C@@H]3C[C@H]2C(=O)N[C@H](C)[C@H]2CC2(Cl)Cl)c2ccc(OCc3ncn(C)n3)cc12 [Example 61, (1R,3S,5R)-2-{2-[3-Acetyl-5-(1-methyl-1H-[1,2,4]triazol-3-ylmethoxy)-indazol-1-yl]-acetyl}-2-aza-bicyclo[3.1.0]hexane-3-carboxylic acid [(R)-1-((R)-2,2-dichloro-cyclopropyl)-ethyl]-amide] | 3 nM |
| Cc1cc2c(C(N)=O)nn(CC(=O)N3[C@@H]4C[C@@H]4C[C@H]3C(=O)N[C@H](C)[C@H]3CC3(Cl)Cl)c2cn1 [Example 38, 1-(2-{(1R,3S,5R)-3-[(R)-1-((R)-2,2-Dichloro-cyclopropyl)-ethylcarbamoyl]-2-aza-bicyclo[3.1.0]hex-2-yl}-2-oxo-ethyl)-5-methyl-1H-pyrazolo[3,4-c] pyridine-3-carboxylic acid amide] | 40 nM |
| CC(=O)c1nn(CC(=O)N2[C@@H]3C[C@@H]3C[C@H]2C(=O)NC[C@H]2CC2(Cl)Cl)c2ccc(O)cc12 [Example 122, (1R,3S,5R)-2-[2-(3-Acetyl-5-hydroxy-indazol-1-yl)-acetyl]-2-aza-bicyclo[3.1.0]hexane-3-carboxylic acid ((R)-2,2-dichloro-cyclopropylmethyl)-amide] | 58 nM |
| C[C@@H](NC(=O)[C@@H]1C[C@H]2C[C@H]2N1C(=O)Cn1nc(C(N)=O)c2ccccc21)[C@H]1CC1(Cl)Cl [Example 36, 1-(2-{(1R,3S,5R)-3-[(R)-1-((R)-2,2-Dichloro-cyclopropyl)-ethylcarbamoyl]-2-aza-bicyclo[3.1.0]hex-2-yl}-2-oxo-ethyl)-1H-indazole-3-carboxylic acid amide] | 25 nM |
| CC(=O)c1nn(CC(=O)N2[C@@H]3C[C@@H]3C[C@H]2C(=O)N[C@H](C)[C@H]2CC2(Cl)Cl)c2cnccc12 [Example 47, (1R,3S,5R)-2-[2-(3-Acetyl-pyrazolo[3,4-c]pyridin-1-yl)-acetyl]-2-aza-bicyclo[3.1.0] hexane-3-carboxylic acid [(R)-1-((R)-2,2-dichloro-cyclopropyl)-ethyl]-amide] | 35 nM |
| CC(=O)c1nn(CC(=O)N2[C@@H]3C[C@@H]3C[C@H]2C(=O)NCC2CC(F)(F)C2)c2ccc(OCc3ncccn3)cc12 [Example 62, (1R,3S,5R)-2-{2-[3-Acetyl-5-(pyrimidin-2-ylmethoxy)-indazol-1-yl]-acetyl}-2-aza-bicyclo[3.1.0] hexane-3-carboxylic acid (3,3-difluoro-cyclobutylmethyl)-amide] | 162 nM |
| CC(=O)c1nn(CC(=O)N2[C@@H]3C[C@@H]3C[C@H]2C(=O)NCC2CCCC(C(F)(F)F)C2)c2cnccc12 (stereo partly drawn) [Example 14, (1R,3S,5R)-2-[2-(3-Acetyl-pyrazolo[3,4-c]pyridin-1-yl)-acetyl]-2-aza-bicyclo[3.1.0] hexane-3-carboxylic acid (3-trifluoromethyl-cyclohexylmethyl)-amide] | 334 nM |
| NC(=O)c1nn(CC(=O)N2[C@@H]3C[C@@H]3C[C@H]2C(=O)NC[C@@H]2CC2(Cl)Cl)c2cnccc12 [Example 71, 1-(2-{(1R,3S,5R)-3-[((S)-2,2-Dichloro-cyclopropylmethyl)-carbamoyl]-2-aza-bicyclo[3.1.0]hex-2-yl}-2-oxo-ethyl)-1H-pyrazolo[3,4-c]pyridine-3-carboxylic acid amide] | 136 nM |
| NC(=O)c1nn(CC(=O)N2[C@@H]3C[C@@H]3C[C@H]2C(=O)NC[C@H]2CC2(Cl)Cl)c2ccc(OCc3ncccn3)cc12 [Example 110, 1-(2-{(1R,3S,5R)-3-[((R)-2,2-Dichloro-cyclopropylmethyl)-carbamoyl]-2-aza-bicyclo [3.1.0]hex-2-yl}-2-oxo-ethyl)-5-(pyrimidin-2-ylmethoxy)-1H-indazole-3-carboxylic acid amide] | 41 nM |
| CC(=O)c1nn(CC(=O)N2[C@@H]3C[C@@H]3C[C@H]2C(=O)NCC2CCC3(CCC3)CC2)c2cnccc12 [Example 3, (1R,3S,5R)-2-[2-(3-Acetyl-pyrazolo[3,4-c]pyridin-1-yl)-acetyl]-2-aza-bicyclo[3.1.0] hexane-3-carboxylic acid (spiro[3.5]non-7-ylmethyl)-amide] | 1350 nM |

Same assay, conditions: IC50, Factor D inhibition data using Method 1; recombinant human factor D 10 nM, substrate Z-Lys-thiobenzyl, fluorescence

| Structure (SMILES) | IC50 |
| --- | --- |
| NC(=O)c1nn(CC(=O)N2[C@@H]3C[C@@H]3C[C@H]2C(=O)NC(CO)C2CC2(Cl)Cl)c2ccccc12 (single isomer, unassigned; dia 1) [Example 23] | 1610 nM |
| CC(=O)c1nn(CC(=O)N2[C@@H]3C[C@@H]3C[C@H]2C(=O)NC(C)C2CC2(Cl)Cl)c2ccc(OCc3ncccn3)cc12 (single isomer, unassigned; dia 2) [Example 33] | 300 nM |
| CC1C(CNC(=O)[C@@H]2C[C@H]3C[C@H]3N2C(=O)Cn2nc(C(N)=O)c3ccccc32)C1(Cl)Cl (single isomer, unassigned; dia 2) [Example 74, 1-(2-{(1R,3S,5R)-3-[((1R,3R) or (1S,3S)-2,2-Dichloro-3-methyl-cyclopropylmethyl)-carbamoyl]-2-aza-bicyclo[3.1.0]hex-2-yl}-2-oxo-ethyl)-1H-indazole-3-carboxylic acid amide-Dia 2] | 12 nM |
| CC1C(CNC(=O)[C@@H]2C[C@H]3C[C@H]3N2C(=O)Cn2nc(C(N)=O)c3ccccc32)C1(Cl)Cl (single isomer, unassigned; dia 1) [Example 77, 1-(2-{(1R,3S,5R)-3-[((1R,3S) or (1S,3R)-2,2-Dichloro-3-methyl-cyclopropylmethyl)-carbamoyl]-2-aza-bicyclo[3.1.0]hex-2-yl}-2-oxoethyl)-1H-indazole-3-carboxylic acid amide-Dia 1] | 35 nM |
| CC(=O)c1nn(CC(=O)N2[C@@H]3C[C@@H]3C[C@H]2C(=O)NCC2C(C)C2(Cl)Cl)c2ccc(OCc3ncccn3)cc12 (single isomer, unassigned; dia 1) [Example 108, (1R,3S,5R)-2-{2-[3-Acetyl-5-(pyrimidin-2-ylmethoxy)-indazol-1-yl]-acetyl}-2-aza-bicyclo[3.1.0] hexane-3-carboxylic acid ((1R,3S) or (1S,3R)-2,2-dichloro-3-methyl-cyclopropylmethyl)-amide-Dia 1] | 27 nM |
